Entries after “also recorded” stand apart in the source; their conditions may differ.
What was measured:
eHsp90 = assay: In vivo tracking of eHsp90 expression in CIA mouse model of RA (flow cytometry, CryoViz imaging)
Experimental: FIG. 5A is a schematic of CIA mouse model of RA experimental design, wherein mice were inoculated with CIA on day 0) and 21. […] 6-hours post treatment mice were whole body cryopreserved. […] Gated regions indicate CD4 and CD8 T-Cell populations isolated from individual mice. eHsp90 expression in CD4 and CD8 T cells 6 hours post HS-131 or HS-198 treatment. N=3+SD. Experiments represent 3 biological replicates.
(§1) CIA Disease: Collagen was prepared at 4 mg/ml in 0.01 N acetic acid. Equal volumes of 4 mg/ml collagen and 5 mg/ml Freund's complete adjuvant were emulsified by hand mixing with syringes for approximately 5 min, at which point a bead of this material holds its form when placed in water. On study days 0 and 21, animals were anesthetized with isoflurane and given intradermal injections of a total of 400 μg of type II collagen in Freund's complete adjuvant at the base of the tail.
CryoViz™ Imaging: Whole mice were imaged at 10.23 μm×10.23 μm in-plane resolution using an Olympus MVX-10 microscope with a 1X objective and 0.63× magnification and 40 μm section thickness, using the Cryo Viz™ (BioInVision, Inc., Cleveland, USA). CryoViz™ is a fully automated, serial sectioning-and-imaging system which provides 3-dimensional, tiled, microscopic anatomical bright field and molecular fluorescence images over large fields-of-view such as a whole mouse. Images were acquired using a dual band FITC/TxRed fluorescence filter (Chroma, Inc., Rockingham, VT), a liquid crystal RGB filter and a low-noise monochrome camera. Raw images acquired by the Cryo Viz™ were processed to generate 3D color anatomical brightfield and molecular fluorescence volumes using the Cryo Viz™ Preprocessor software (BioIn Vision, Inc., Cleveland, Ohio). These 3D volumetric image data were then processed using the CryoViz™ 3D Visualizer software (BioInVision, Inc., Cleveland, USA) to obtain 3D reconstructed brightfield and fluorescence volume renderings and movies with 2D slice cutaway animations, showing the 2D/3D biodistribution of TxRed labeled HS-131 within the mouse volume.
This was consistently seen in cell culture, tumor cell xenografts and mouse models of spontaneous metastatic disease (Barrott et al. Chem Biol 20. 1187-1197 (2013)). […] To determine if this phenomenon occurred within the context of a fully functional immune system, the collagen induced arthritic (CIA) mouse model of human rheumatoid arthritis (RA) was utilized (Rice et al. Arthritis Rheum 58. 3765-3775 (2008)). Mice (DBA/IlacJ ˜8 weeks old) reliably develop polyarthritis when immunized against bovine type II collagen (Scarneo et al. Arthritis Res Ther 21, 292 (2019): Campbell et al., Ann Rheum Dis 56, 364-368 (1997)). The disease that occurs is usually non-symmetric, and any combination of paws/joints may be affected. Mice were injected […] with bovine collagen at Day (and then again 21 days later (FIG. 5A). This second injection triggered the development of the CIA related symptoms over the next several days within the joints. A primary mediator of local inflammatory responses in autoimmunity are invading T cell populations recognizing foreign antigens. To determine if invading T cells at sites of active disease expressed eHsp90, the animals were injected with HS-131 or HS-198. This was done at the peak of RA symptoms following the second immune challenge. After 6 hours, the animals were euthanized, immediately cryo-frozen in liquid nitrogen and cryo-sectioned (see, FIG. 5A).
Approximately, 500 40 μm slices were made and each slice imaged with both bright field and by fluorescence at Ex640 nm/Em680 nm. Evaluation of the biodistribution was then made by histological examination of individual slices and after in silico reconstruction of the entire mouse anatomy (see, FIGS. 5B-5E).

[1] = system: collagen induced arthritic (CIA) mouse model; assay: Therapeutic efficacy in CIA mouse model (clinical score and joint histology); assay type: in vivo; details: 30 mg/kg QD
Experimental: FIGS. 9A-9E illustrate therapeutic potential of eHsp90 targeted therapies for the treatment of auto immune diseases. […] FIG. 9D are representative photomicrographs of forepaw, knee and ankle from a disease control (Naïve), diseased vehicle treated and HS-131 treated animals. “W” identifies wrist, arrows identifies representative affected joints, and “S” identifies inflammation. […] Experiment was performed once with 12 biological replicates per group.
as §1
CIA Experimental Design: Mice were randomized into treatment groups by body weight on study day 18. Animals were treated from day 21-36 of the study with either 20 μL of HS-131 (30 mg/kg) PO, QD or vehicle (DMSO) PO, QD. On study day 36, the mice were euthanized for necropsy. Clinical scores were given for each of the paws (right front, left front, right rear, left rear) on study days 21-36. 0=normal, 1=one hind or fore paw joints affected or minimal diffuse erythema and swelling, 2=two hind or fore paw joints affected or moderate diffuse erythema and swelling, 3=three hind or fore paw joints affected or moderate diffuse erythema and swelling, 4=four hind or fore paw joints affected or marked diffuse erythema and swelling, 5=entire paw affected, severe diffuse erythema and severe swelling, unable to flex digits. Experimenter was blinded from the treatment group during clinical evaluation and scoring.
Immunohistological Staining: After 24-48 hours in fixative and 4-5 days in 5% formic acid for decalcification, tissues were trimmed, and processed for paraffin embedding. Paws were embedded in paraffin in the frontal plane and the knees were embedded with the patella facing down. Ankles, if left attached to the hind paw, were also embedded in the frontal plane but may be detached and sectioned in the sagittal plane for special purposes. Sections were cut and stained with toluidine blue.
0=Normal. 0.5=Very minimal, affects only 1 joint or minimal multifocal periarticular infiltration of inflammatory cells. 1=Minimal infiltration of inflammatory cells in synovium and periarticular tissue of affected joints. 2=Mild infiltration of inflammatory cells. When referring to paws, generally restricted to affected joints (1-3 affected). 3=Moderate infiltration with moderate edema. When referring to paws, restricted to affected joints, generally 3-4 joints and the wrist or ankle. 4=Marked infiltration affecting most areas with marked edema, 1 or 2 unaffected joints may be present. 5=Severe diffuse infiltration with severe edema affecting all joints (to some extent) and periarticular tissues.
0=Normal. 0.5=Very minimal, affects only one area of the synovium or minimal multifocal periarticular infiltration of inflammatory cells. 1=Minimal infiltration of inflammatory cells in synovium and periarticular tissue of affected synovial areas. 2=Mild diffuse infiltration of inflammatory cells. 3=Moderate diffuse infiltration of inflammatory cells. 4=Marked diffuse infiltration of inflammatory cells. 5=Severe diffuse infiltration of inflammatory cells.
0=Normal. 0.5=Very minimal=Affects marginal zones only of one to several areas (knees) or joints (paws). 1=Minimal=Generally minimal to mild loss of toluidine blue staining (proteoglycan) with no obvious chondrocyte loss or collagen disruption in affected joints/areas. 2=Mild=Generally mild loss of toluidine blue staining (proteoglycan) with focal areas of chondrocyte loss and/or collagen disruption in some affected joints/areas. […]

Cc1nn(-c2ccc(C(N)=O)c(NCCCOCCOCCOCCOCCOCCCNCc3ccc(C(=C\C=C4\N(CCCCS(=O)(=O)[O-])c5ccccc5C4(C)C)/C=C/C4=[N+](CCCCS(=O)(=O)O)c5ccccc5C4(C)C)cc3)c2)c2c1C(=O)CC(C)(C)C2 [HS-131]
probe uptake in joints of naïve non diseased animal compared to CIA diseased animal (eHsp90; 10 nmoles tail vein, 6 hours post injection (FIGS. 6A-6C)): no marked HS-131 in the joints
systemic distribution in whole-body reconstruction of CIA mice (eHsp90; 6 hours post tail vein injection): largely confined to areas of active immune cell invasion
probe signal (eHsp90 expression) in T cells of PBMC populations from CIA mice by flow cytometry (eHsp90; 6 hours post tail vein injection, CD4 and CD8 T cells (FIG. 5B)): pronounced eHsp90 expression
probe localization in hind leg, knee, hip and paw of CIA mouse (eHsp90; 6 hours post tail vein injection, cryo-sections (FIG. 5C)): marked increase
fluorescence associated with the lower intestine of CIA mice (eHsp90; 24 hours post HS-131 injection (FIG. 7B)): no discrete fluorescence
route of elimination / clearance (eHsp90; mice): via the hepatobiliary system and intestines; also recorded: exclusively eliminated through the biliary system and intestine; also recorded: rapid hepatobiliary clearance
pathogenesis of disease development (animals developing disease) ([1]; day 21-36, N=12/group (FIG. 9A)): comparable to the vehicle control
reduction of bone resorption, histological scoring ([1]; day 36, vs vehicle (FIG. 9E)): 35%
reduction of cartilage damage, histological scoring ([1]; day 36, vs vehicle (FIG. 9E)): 36%
reduction of inflammation, histological scoring ([1]; day 36, vs vehicle (FIG. 9E)): 27%
reduction of pannus, histological scoring ([1]; day 36, vs vehicle (FIG. 9E)): 35%
reduction of periosteal bone, histological scoring ([1]; day 36, vs vehicle (FIG. 9E)): 29%
mean clinical arthritic score ([1]; throughout study period, vs vehicle, p<.001 (FIG. 9B)): significantly reduced
decrease in clinical score, area under the curve ([1]; vs vehicle (FIG. 9C)): ~23%

— patent publication US20240299358A1, “COMPOSITIONS AND METHODS FOR DIAGNOSIS AND TREATMENT OF AUTOIMMUNE DISEASES” (DUKE UNIVERSITY, priority 2021, published 2024)
